We go through two compounds from patent US12661431B2, “Pharmaceutical compositions for treating osteoarthritis” (INSIGNIA PHARMACEUTICALS, LLC, priority 2023, dated 2026).

Data set [1] has as its system THP-1 macrophage-like cells. Put plainly: IL-1beta release (ELISA) from PMA-differentiated THP-1 cells activated with LPS then ATP. Conditions: 0.2 (0.19) to 6 millimolar; LPS 100 ng/mL 24 hours then 10 millimolar ATP 1 hour. It is filed as cell-based, human. As for the experimental part: The human monocyte cell line THP-1 was differentiated into macrophage-like cells with PMA for 72 hours. […] Cells were then activated with 100 nanograms per milliliter lipopolysaccharide (LPS) for 24 hours followed by an additional hour with 10 millimolar adenosine triphosphate (ATP). LPS is a toll-like receptor 4 (TLR4) agonist, and ATP activates […] to promote inflammasome activity. The resulting IL-1beta release was quantified by enzyme-linked immunosorbent assay (ELISA).
A general note: An ELISA detects its analyte on a solid surface through an enzyme-linked reagent.

In data set [2] the test system is THP-1 macrophage-like cells. Put plainly: IL-1beta release (ELISA) from PMA-differentiated THP-1 cells stimulated with CL075 with or without ATP. Type of data set: cell-based, human. Conditions: 1 millimolar decanoic acid. As for the experimental part:
TLR7/8 agonists increase inflammasome activity and IL-1beta release through a different pathway relative to TLR4 agonists. To evaluate this response, THP-1 monocytic cells were differentiated to a macrophage-like state using PMA for 72 hours. […] To further activate the inflammasome, ATP was then added to the wells designated “second hit,” and the cultures were incubated for an additional hour. To indicated wells, hyaluronidase was added for 15 minutes, and all mediums harvested for IL-1beta ELISA quantification. Results are depicted in FIG. 7.

The subject of data set [3] is THP-1 macrophage-like cells. The experiment in a line: Colorimetric MTS cell density/viability assay, resting and activated THP-1 cultures. Conditions: 6 millimolar decanoic acid. Type of data set: cell-based, human. On the procedure:
Then cell density was assessed in both resting and activated cultures using a colorimetric MTS assay with optical density at 490 nanometers (FIGS. 6A & 6B).

The subject of data set [4] is Human osteoarthritic chondrocytes. Put plainly: Immunostaining for SOX9, Col2a1 and ACAN of osteoarthritic chondrocytes cultured 24 days on HA hydrogel. It is filed as cell-based. An excerpt: ACAN is an articular cartilage-specific proteoglycan that is important to the proper function and the load-bearing capacity of cartilage. Data is presented as the fluorescence of photographic images captured on an epifluorescent microscope for the ACAN signal (FU) normalized to the signal of 4′,6-diamidino-2-phenylindole (DAPI) nuclear stain, designated as FU/DAPI.
The chondrocytes were layered on top of an HA hydrogel (SYNVISC®, Sanofi-Aventis, United States). Following 24 days, the cells were fixed with paraformaldehyde and immunostained for SOX9, Col2a1, and ACAN.

The test system is the same in data set [5]. Put plainly: Microscopic examination of chondrocyte spheroid morphology on HA hydrogel. It is filed as cell-based. On the procedure:
The chondrocytes were layered on top of an HA hydrogel (SYNVISC®, Sanofi-Aventis, United States). Following 20 days, hyaluronidase was added to release the cells from the hydrogel, the cells were collected, and total RNA was isolated.
Control chondrocytes established a monolayer on the bottom surface of their culture wells (FIG. 4A).

Data set [6] relates to THP-1 macrophage-like cells. Put plainly: Tetrazolium colorimetric cell count assay of THP-1 cultures on HA hydrogel. Type of data set: cell-based, human. The conditions noted are these: addition of decanoic acid (1 millimolar) on HA hydrogel. On the procedure: A colorimetric assay confirmed that the inhibition of IL-1beta release was not caused solely by reduced cell counts. Tetrazolium colorimetric dye was added to the cultures at the end of the experiment and cell counts were measured by optical density at 490 nanometers.

Data set [7] relates to Osteoarthritic fibroblast-like chondrocytes. Put plainly: MMP13 expression by real time RT-PCR in osteoarthritic fibroblast-like chondrocytes. It is filed as cell-based. The conditions noted are these: 0.1 percent hyaluronic acid and/or 0.1 micromolar dexamethasone. As for the experimental part:
Osteoarthritic fibroblast-like chondrocytes were cultured for 2 to 28 days in the presence of either 0.1 percent hyaluronic acid, 0.1 micromolar dexamethasone, or both 0.1 percent hyaluronic acid and 0.1 micromolar dexamethasone. Media was exchanged every 2-3 days. Chondrocytes cultured for 2 days, 14 days, or 28 days were analyzed by real time RT-PCR to assess matrix metallopeptidase 13 (MMP13) expression.
(Real-time PCR tracks product formation cycle by cycle.)

The mark [8] stands for this setting: high-density monolayers, vehicle, 0.1, 0.5 and 1 millimolar decanoic acid.

SMILES strings stand for the structures. “Also recorded” adds a separate entry of the source.

Regarding `CCCCCCCCCC(=O)O` [decanoic acid], the “inhibition of inflammasome-IL-1beta release” value in data set [1] is recorded as “dose-dependent inhibition of IL-1beta concentrations; also recorded: dose-dependent inhibition of inflammasome-IL-1beta release”. Further, the “decrease concentration of IL-1beta” value in data set [2] (CL075 24 hours then ATP 1 hour (second hit)) was determined as 91%; in data set [2] (CL075 24 hours, absence of ATP (first hit)) it was 77%. Further, the “cell density / viability (MTS, OD 490 nanometers)” value in data set [3] is given as “significant decrease in viability; also recorded: unfavorable effect on cell density”. Moreover, in data set [4] (1 millimolar decanoic acid, 24 days on HA hydrogel), the “spheroid development or condensation” value is “enhanced spheroid development or condensation”. For the same compound, the “concentration of peak Col2a1 staining” value in data set [4] (high-density monolayers) was determined as 0.5 millimolar. For the same compound, in data set [4] (setting [8]), the “punctate staining for Col2a1” value is listed as “dose-dependent punctate staining for Col2a1”. Besides, in data set [4] (setting [8]), the “staining for aggrecan (ACAN)” value is reported as “dose-dependent increase in staining for aggrecan”. Moreover, the “nuclear staining for SOX9” value in data set [4] (high-density monolayers, vehicle, 0.1, 0.5 and 1 millimolar decanoic acid, 24 days on HA hydrogel) is “enhanced nuclear staining for SOX9 in a dose-dependent manner”. In addition, the “punctate immunostaining for Col2a1” value in data set [4] (low-density monolayers, 1 millimolar decanoic acid) is “strong punctate immunostaining for Col2a1”. Besides, the “intracellular staining for ACAN (FU/DAPI, FIG. 1)” value in data set [4] (low-density monolayers, increasing millimolar concentrations, strongest at 1 millimolar) is “dose-dependent increase in aggrecan (ACAN) immunofluorescence staining; also recorded: dose-dependent intracellular staining for ACAN”. In addition, the “ACAN immunostaining of chondrocyte spheroids” value in data set [4] (spheroids on HA hydrogels, 1 millimolar decanoic acid) is “strong ACAN immunostaining”. Further, the “spheroid morphology after 4 days of culture” value in data set [5] (4 days on HA hydrogel, with vs without decanoic acid) was “the spheroids generated interconnected networks; also recorded: promoted interconnected networks of spheroids”. Further, the “spheroid morphology after 20 days of culture” value in data set [5] (20 days on HA hydrogel, 1 millimolar decanoic acid vs without) is “increased condensation and the development of large spheroids; also recorded: large spheroid development or condensation”. Besides, the “decrease in optical density at 490 nanometers (cell counts)” value in data set [6] (CL075, absence of ATP) is listed as 18%; in data set [6] (CL075, presence of ATP), 25%.

With `C[C@@H]1C[C@H]2[C@@H]3CCC4=CC(=O)C=C[C@]4(C)[C@@]3(F)[C@@H](O)C[C@]2(C)[C@@]1(O)C(=O)CO` [dexamethasone], in data set [7], the “Change in MMP13 expression at day 2” value came to 0, the “Change in MMP13 expression at day 14” value is listed as −399 and the “Change in MMP13 expression at day 28” value is given as −4.
